# Reference: patent US9040530B2, “1,2,4-triazine-6-carboxamide kinase inhibitors” (Portola Pharmaceuticals, Inc., priority 2012, dated 2015)
# Biological target: T1, full length active recombinant SYK enzyme (Homo sapiens, UniProt P43405)
# T1 construct: full length active recombinant SYK enzyme (Millipore, Calif.); purchased Millipore
# Assay: Inhibition of Syk tyrosine phosphorylation activity (LANCE TR-FRET kinase assay)
# Assay type: biochemical
# Conditions: 1 nM active SYK enzyme, 550 nM SYK-substrate, 100 μM ATP, 1 hour at room temperature
# Method: The in vitro and in vivo human Syk activities of the inventive compounds can be determined by various procedures known in the art, such as a test for their ability to inhibit the activity of human plasma Syk.
# Inhibition of Syk Tyrosine Phosphorylation Activity
# SYK tyrosine phosphorylation activity is measured using the LANCE™ Technology developed by Perkin Elmer Life and Analytical Sciences (Boston, Mass.). LANCE™ refers to homogeneous time resolved fluorometry applications using techniques such as time-resolved fluorescence resonance energy transfer assay (TR-FRET) (see generally for procedures in Perkin Elmer Application Note—How to Optimize a Tyrosine Kinase Assay Using Time Resolved Fluorescence-Based LANCE Detection, wwww.perkinelmer.com/lifesciences). The assay principle involves detection of a phosphorylated substrate using energy transfer from a phosphospecific europium-labeled antibody to streptavidin-allophycocyanin as an acceptor.
# Molecules are reconstituted in 30% DMSO and serially diluted 1:3 with the final dilution containing DMSO in the absence of the candidate molecule. The final DMSO concentration in the assay is 3%. Kinase assays are performed as a two part reaction. […] The second reaction involves termination of the kinase reaction and the simultaneous addition of the detection reagents-europium-labeled anti-phosphotyrosine reagent (Eu-W1024-PY100, Perkin Elmer, Boston, Mass.) and Streptavidin-Allophycocyanin detection reagent (SA-APC, Prozyme, CA). The kinase reaction is performed in a black U-bottom 96-well microtitre plate. […] The reaction is allowed to proceed for 1 hour at room temperature. The quench buffer contains 100 mM Tris pH 7.5, 300 mM […], 20 mM EDTA, 0.02% Brij35, and 0.5% BSA. The detection reagents are added to the reaction mixture at the following dilutions-1:500 for Eu-W1024-PY100 and 1:250 for SA-APC. The kinase reaction is terminated by the addition of 50 μL quench buffer containing the detection reagents. The detection is allowed to proceed for 1 hr at room temperature. Detection of the phosphorlated substrate in the absence and presence of inhibitors is measured in the TR-FRET instrument, Analyst HT (Molecular Probes, Sunnyvale, Calif.) and the condition for measurements are set up using CriterionHost Release 2.0 (Molecular Probes, Sunnyvale, Calif.). […] IC50s were derived by non-linear regression analysis.
row,SMILES,IC50 [nM]
1,"NC(=O)c1nnc(N[C@@H]2CCNC2)nc1Nc1ccc2ncccc2c1 [Example 57, (R)-3-(pyrrolidin-3-ylamino)-5-(quinolin-6-ylamino)-1,2,4-triazine-6-carboxamide]",1 to 10
2,"NC(=O)c1nnc(N[C@@H]2CCCC[C@@H]2N)nc1Nc1cnc2ccccc2c1 [Example 58, 3-(((1R,2S)-2-aminocyclohexyl)amino)-5-(quinolin-3-ylamino)-1,2,4-triazine-6-carboxamide]",1 to 10
3,"CC[C@@H](Nc1nnc(C(N)=O)c(Nc2cnc3ccccc3c2)n1)C(N)=O [Example 59, (R)-3-((1-amino-1-oxobutan-2-yl)amino)-5-(quinolin-3-ylamino)-1,2,4-triazine-6-carboxamide]",10 to 100
4,"CN(C)C(=O)c1ccc(Nc2nc(N[C@@H]3CCCC[C@@H]3N)nnc2C(N)=O)cc1 [Example 62, 3-(((1R,2S)-2-aminocyclohexyl)amino)-5-((4-(dimethylcarbamoyl)phenyl)amino)-1,2,4-triazine-6-carboxamide]",100 to 1000
5,"NC(=O)c1nnc(N[C@@H]2CCCC[C@@H]2N)nc1Nc1ccc(C(=O)N2CCC2)cc1 [Example 63, 3-(((1R,2S)-2-aminocyclohexyl)amino)-5-((4-(azetidine-1-carbonyl)phenyl)amino)-1,2,4-triazine-6-carboxamide]",10 to 100
6,"Cc1cc(Nc2nc(N[C@@H]3CCCC[C@@H]3N)nnc2C(N)=O)ccc1C(=O)N1CCC1 [Example 64, 3-(((1R,2S)-2-aminocyclohexyl)amino)-5-((4-(azetidine-1-carbonyl)-3-methylphenyl)amino)-1,2,4-triazine-6-carboxamide]",10 to 100
7,"CN(C)C(=O)c1ccc(Nc2nc(N[C@@H]3CCCC[C@@H]3N)nnc2C(N)=O)cn1 [Example 65, 3-(((1R,2S)-2-aminocyclohexyl)amino)-5-((6-(dimethylcarbamoyl)pyridin-3-yl)amino)-1,2,4-triazine-6-carboxamide]",> 1000
8,"NC(=O)c1nnc(N[C@@H]2CCCC[C@@H]2N)nc1Nc1ccc(C(=O)N2CCC2)nc1 [Example 66, 3-(((1R,2S)-2-aminocyclohexyl)amino)-5-((6-(azetidine-1-carbonyl)pyridin-3-yl)amino)-1,2,4-triazine-6-carboxamide]",10 to 100
9,"NC(=O)c1nnc(N[C@@H]2CCCC[C@@H]2N)nc1Nc1ccc(F)nc1 [Example 67, 3-(((1R,2S)-2-aminocyclohexyl)amino)-5-((6-fluoropyridin-3-yl)amino)-1,2,4-triazine-6-carboxamide]",100 to 1000
10,"COc1cc(Nc2nc(N[C@@H]3CCCC[C@@H]3N)nnc2C(N)=O)ccn1 [Example 68, 3-(((1R,2S)-2-aminocyclohexyl)amino)-5-((2-methoxypyridin-4-yl)amino)-1,2,4-triazine-6-carboxamide]",1 to 10
11,"NC(=O)c1nnc(N[C@@H]2CCCC[C@@H]2N)nc1Nc1ccccc1 [Example 69, 3-(((1R,2S)-2-aminocyclohexyl)amino)-5-(phenylamino)-1,2,4-triazine-6-carboxamide]",1 to 10
12,"NC(=O)c1nnc(N[C@@H]2CCNC2)nc1Nc1cccc(-c2ncccn2)c1 [Example 70, (R)-5-((3-(pyrimidin-2-yl)phenyl)amino)-3-(pyrrolidin-3-ylamino)-1,2,4-triazine-6-carboxamide]",10 to 100
13,"NC(=O)c1nnc(N[C@@H]2CCOC[C@@H]2N)nc1Nc1cccc(-c2ncccn2)c1 [Example 71, 3-(((3R,4R)-3-aminotetrahydro-2H-pyran-4-yl)amino)-5-((3-(pyrimidin-2-yl)phenyl)amino)-1,2,4-triazine-6-carboxamide]",10 to 100
14,"N#Cc1cccc(Nc2nc(N[C@@H]3CCCC[C@@H]3N)nnc2C(N)=O)c1 [Example 72, 3-(((1R,2S)-2-aminocyclohexyl)amino)-5-((3-cyanophenyl)amino)-1,2,4-triazine-6-carboxamide]",1 to 10
15,"CC[C@@H](Nc1nnc(C(N)=O)c(Nc2cccc(C#N)c2)n1)C(N)=O [Example 73, (R)-3-((1-amino-1-oxobutan-2-yl)amino)-5-((3-cyanophenyl)amino)-1,2,4-triazine-6-carboxamide]",100 to 1000
16,"CC[C@@H](Nc1nnc(C(N)=O)c(Nc2ccc(C#N)cc2)n1)C(N)=O [Example 74, (R)-3-((1-amino-1-oxobutan-2-yl)amino)-5-((4-cyanophenyl)amino)-1,2,4-triazine-6-carboxamide]",100 to 1000
17,"N#Cc1ccc(Nc2nc(N[C@@H]3CCCC[C@@H]3N)nnc2C(N)=O)cc1 [Example 75, 3-(((1R,2S)-2-aminocyclohexyl)amino)-5-((4-cyanophenyl)amino)-1,2,4-triazine-6-carboxamide]",10 to 100
18,"N#Cc1ccc(Nc2nc(N[C@@H]3CCOC[C@@H]3N)nnc2C(N)=O)cc1 [Example 76, 3-(((3R,4R)-3-aminotetrahydro-2H-pyran-4-yl)amino)-5-((4-cyanophenyl)amino)-1,2,4-triazine-6-carboxamide]",100 to 1000
19,"CC(C)C[C@@H](Nc1nnc(C(N)=O)c(Nc2cccc(-c3ncccn3)c2)n1)C(N)=O [Example 77, (R)-3-((1-amino-4-methyl-1-oxopentan-2-yl)amino)-5-((3-(pyrimidin-2-yl)phenyl)amino)-1,2,4-triazine-6-carboxamide]",10 to 100
20,"Cn1cc(Nc2nc(N[C@@H]3CCCC[C@@H]3N)nnc2C(N)=O)cn1 [Example 78, 3-(((1R,2S)-2-aminocyclohexyl)amino)-5-((1-methyl-1H-pyrazol-4-yl)amino)-1,2,4-triazine-6-carboxamide]",100 to 1000
21,"Cn1cc(Nc2nc(N[C@@H]3CCOC[C@@H]3N)nnc2C(N)=O)cn1 [Example 79, 3-(((3R,4R)-3-aminotetrahydro-2H-pyran-4-yl)amino)-5-((1-methyl-1H-pyrazol-4-yl)amino)-1,2,4-triazine-6-carboxamide]",100 to 1000
22,"CC[C@@H](Nc1nnc(C(N)=O)c(Nc2cccc3c2ccn3C)n1)C(N)=O [Example 80, (R)-3-((1-amino-1-oxobutan-2-yl)amino)-5-((1-methyl-1H-indol-4-yl)amino)-1,2,4-triazine-6-carboxamide]",1 to 10
23,"Cn1ccc2c(Nc3nc(N[C@@H]4CCCC[C@@H]4N)nnc3C(N)=O)cccc21 [Example 81, 3-(((1R,2S)-2-aminocyclohexyl)amino)-5-((1-methyl-1H-indol-4-yl)amino)-1,2,4-triazine-6-carboxamide]",1 to 10
24,"Cn1ccc2c(Nc3nc(N[C@@H]4CCOC[C@@H]4N)nnc3C(N)=O)cccc21 [Example 82, 3-(((3R,4R)-3-aminotetrahydro-2H-pyran-4-yl)amino)-5-((1-methyl-1H-indol-4-yl)amino)-1,2,4-triazine-6-carboxamide]",1 to 10
25,"CC(C)C[C@@H](Nc1nnc(C(N)=O)c(Nc2cccc(-n3nccn3)c2)n1)C(N)=O [Example 83, (R)-5-((3-(2H-1,2,3-triazol-2-yl)phenyl)amino)-3-((1-amino-4-methyl-1-oxopentan-2-yl)amino)-1,2,4-triazine-6-carboxamide]",10 to 100
26,"CC[C@@H](Nc1nnc(C(N)=O)c(Nc2cccc(-c3ncccn3)c2)n1)C(N)=O [Example 84, (R)-3-((1-amino-1-oxobutan-2-yl)amino)-5-((3-(pyrimidin-2-yl)phenyl)amino)-1,2,4-triazine-6-carboxamide]",100 to 1000
